Non-standard residues stand in square brackets, D forms with d. Residues, ends and D or L forms follow the SMILES beside them. *: point of attachment. Dnp = O=[N+]([O-])c1ccc(*)c([N+](=O)[O-])c1
Key:
[1] = tested on: purified collagenase; assay: Rate of hydrolysis of DNP-peptide derivatives by purified collagenase (Example 15); format: biochemical, tadpole; details: 5×10^-4 M peptide, purified collagenase 6.2 U/ml, 37° C., pH 7.5; average of three experiments; extraction with ethyl acetate (* compounds: ethyl acetate-n-butanol 1:0.15)
Protocol: (§1) Purified collagenase used in Examples was prepared from cultured media of tadpole skin explants as described in Biochem. Biophs. Acta, 263 564(1972), and non-specific peptidases were prepared by subjecting 5 ml of fresh adult human serum to chromatography on a calibrated Sephadex G-200 superfine gel column equilibrated with 0.05 M Tris-HCl buffer, pH 7.5, containing 0.15 M NaCl and 5 mM CaCl2, and gathering the effluent fractions corresponding to molecular weights of 100,000-180,000.
(§2) Various DNP-peptide derivatives were dissolved in 0.05 M Tris-HCl buffer, pH 7.5, containing 0.15 M NaCl, 5 mM CaCl2 and 0.02% bovine serum albumin to make a concentration of 5×10^-4 M. 0.1 ml Each of the peptide derivative solutions was mixed with an equal volume of purified collagenase (6.2 U/ml) or non-specific peptidases and incubated for various periods at 37° C. After stopping the enzyme reaction by adding 0.5 ml of 1 M HCl, the DNP-peptide fragments released were extracted by vigorous shaking with 1 ml of ethylacetate or ethyl acetate-n-butanol (1:0.15, V/V), and worked up as in Example 12.

[2] = tested on: non-specific peptidases; assay: Rate of hydrolysis of DNP-peptide derivatives by non-specific peptidases (Example 15); format: biochemical, human; details: 5×10^-4 M peptide, 37° C., pH 7.5; average of three experiments; extraction with ethyl acetate (* compounds: ethyl acetate-n-butanol 1:0.15)
Protocol: as §1, §2

[3] = tested on: purified collagenase; assay: Time course of hydrolysis of substrate solutions by purified collagenase (Example 12); format: biochemical, tadpole; details: for 00365 (absorbance of the organic layer at 365 nm): pH 7.5
Protocol: as §1
DNP-Pro-Gln-Gly-Ile-Ala-Gly-Gln-D-Arg-OH.CH3 COOH.H2 O (4.96 mg) was neutralized with 0.1N sodium hydroxide, and dissolved in 0.05M tris-HCl buffer, pH 7.5, containing 0.15 M NaCl and 5 m MCaCl2 to make 10 ml of the substrate solution (a) having a concentration of 5×10^-4 M. The substrate solution (b) was also prepared similarly by using DNP-Gln-Gly-Ile-Ala-Gly-Gln-D-Arg-OH.CH3 COOH.H2 O (4.48 mg).
0.9 ml Each of the substrate solutions was diluted with 0.88 ml of 0.05M tris-HCl buffer, pH 7.5, containing 0.15 M NaCl, and 5 m MCaCl2. The resulting solution was mixed with 0.02 ml of purified collagenase, and incubated. 0.2 ml Aliquots of the reaction mixture were taken out at 0, 10, 20, 40, 60 and 120 minutes, and mixed with 0.5 ml of 1M hydrochloric acid for stopping the enzyme reaction.
(§3) The DNP-peptide fragments released were extracted by vigorous shaking with 1 ml of ethyl acetate-n-butanol (1:0.15, V/V) followed by centrifugation at 3,000-5,000 rpm and room temperature for 10 minutes to separate two layers completely. The degree of hydrolysis was determined by measuring the absorbance of the organic layer at 365 nm.

[4] = tested on: collagenase in synovial fluids; assay: Hydrolysis of substrate solutions by synovial fluids from patients; collagenase activity (Example 14); format: biochemical, human; details: for OD365/0.1 ml ohr: 0 hr; for OD365/0.1 ml 2hr: 2 hr at 37° C.; for OD365/0.1 ml increment: 2 hr minus 0 hr
Protocol: as §3
0.2 ml Each of the substrate (solutions(a) and (b) prepared in Example 12 was mixed with 0.1 ml of synovial fluids from patients with osteoarthritis and rheumatoid arthritis, and incubated for 2 hours at 37° C. After stopping the enzyme reaction by adding 0.5 ml of 1 M hydrochloric acid, the DNP-peptide fragments released were extracted by vigorous shaking with 2 ml of ethyl acetate-n-butanol (1:0.15, V/V), and worked up as in Example 12 to obtain the collagenase activities.

[5] = synovial fluid of case five, RA
[6] = synovial fluid of case four, OA
[7] = synovial fluid of case three, RA

CC[C@H](C)[C@H](NC(=O)CNC(=O)[C@H](CCC(N)=O)NC(=O)[C@@H]1CCCN1c1ccc([N+](=O)[O-])cc1[N+](=O)[O-])C(=O)N[C@@H](C)C(=O)NCC(=O)N[C@H](CCCNC(=N)N)C(=O)O [Example 8, DNP-Pro-Gln-Gly-Ile-Ala-Gly-D-Arg-OH] (Dnp-PQGIAG[dR]-OH)
Rate of hydrolysis by Collagenase [1]: 0.157 OD365/hr | Rate of hydrolysis by non-specific peptidases [2]: 0.021 OD365/hr

CC[C@H](C)[C@H](NC(=O)CNC(=O)[C@H](CC(C)C)NC(=O)[C@@H]1CCCN1c1ccc([N+](=O)[O-])cc1[N+](=O)[O-])C(=O)N[C@@H](C)C(=O)NCC(=O)N[C@@H](CCC(N)=O)C(=O)N[C@H](CCCNC(=N)N)C(=O)O [Example 9, DNP-Pro-Leu-Gly-Ile-Ala-Gly-Gln-D-Arg-OH] (Dnp-PLGIAGQ[dR]-OH)
Rate of hydrolysis by Collagenase [1]: 0.276 OD365/hr | Rate of hydrolysis by non-specific peptidases [2]: 0 OD365/hr

CC[C@H](C)[C@H](NC(=O)CNC(=O)[C@H](CCC(N)=O)Nc1ccc([N+](=O)[O-])cc1[N+](=O)[O-])C(=O)N[C@@H](C)C(=O)NCC(=O)N[C@@H](CCC(N)=O)C(=O)N[C@H](CCCNC(=N)N)C(=O)O [Example 10, DNP-Gln-Gly-Ile-Ala-Gly-Gln-D-Arg-OH]
00365 (absorbance of the organic layer at 365 nm) ([3]; incubation time 0 min): 0.027 | increment of 00365 ([3]; incubation time 10 min): 0 | 00365 (absorbance of the organic layer at 365 nm) ([3]; incubation time 10 min): 0.027 | increment of 00365 ([3]; incubation time 20 min): 0 | 00365 (absorbance of the organic layer at 365 nm) ([3]; incubation time 20 min): 0.027 | increment of 00365 ([3]; incubation time 40 min): 0.002 | 00365 (absorbance of the organic layer at 365 nm) ([3]; incubation time 40 min): 0.030 | increment of 00365 ([3]; incubation time 60 min): 0.002 | 00365 (absorbance of the organic layer at 365 nm) ([3]; incubation time 60 min): 0.029 | increment of 00365 ([3]; incubation time 120 min): 0 | 00365 (absorbance of the organic layer at 365 nm) ([3]; incubation time 120 min): 0.027 | OD365/0.1 ml ohr [4, 5]: 0.045 OD365/0.1 ml | OD365/0.1 ml 2hr [4, 5]: 0.045 OD365/0.1 ml | OD365/0.1 ml increment [4, 5]: 0.000 OD365/0.1 ml | OD365/0.1 ml ohr [4, 6]: 0.038 OD365/0.1 ml | OD365/0.1 ml 2hr [4, 6]: 0.040 OD365/0.1 ml | OD365/0.1 ml increment [4, 6]: 0.002 OD365/0.1 ml | OD365/0.1 ml ohr ([4]; synovial fluid of case one, RA): 0.049 OD365/0.1 ml | OD365/0.1 ml 2hr ([4]; synovial fluid of case one, RA): 0.046 OD365/0.1 ml | OD365/0.1 ml increment ([4]; synovial fluid of case one, RA): 0 OD365/0.1 ml | OD365/0.1 ml ohr ([4]; synovial fluid of case six, OA): 0.050 OD365/0.1 ml | OD365/0.1 ml 2hr ([4]; synovial fluid of case six, OA): 0.041 OD365/0.1 ml | OD365/0.1 ml increment ([4]; synovial fluid of case six, OA): 0 OD365/0.1 ml | OD365/0.1 ml ohr [4, 7]: 0.050 OD365/0.1 ml | OD365/0.1 ml 2hr [4, 7]: 0.051 OD365/0.1 ml | OD365/0.1 ml increment [4, 7]: 0.001 OD365/0.1 ml | OD365/0.1 ml ohr ([4]; synovial fluid of case two, OA): 0.035 OD365/0.1 ml | OD365/0.1 ml 2hr ([4]; synovial fluid of case two, OA): 0.038 OD365/0.1 ml | OD365/0.1 ml increment ([4]; synovial fluid of case two, OA): 0.003 OD365/0.1 ml | Rate of hydrolysis by Collagenase [1]: 0 OD365/hr | Rate of hydrolysis by non-specific peptidases [2]: 0 OD365/hr

CC[C@H](C)[C@H](NC(=O)CNC(=O)[C@H](C)Nc1ccc([N+](=O)[O-])cc1[N+](=O)[O-])C(=O)N[C@@H](C)C(=O)NCC(=O)N[C@@H](CCC(N)=O)C(=O)N[C@H](CCCNC(=N)N)C(=O)O [Example 11, DNP-Ala-Gly-Ile-Ala-Gly-Gln-D-Arg-OH]
Rate of hydrolysis by Collagenase [1]: 0 OD365/hr | Rate of hydrolysis by non-specific peptidases [2]: 0.016 OD365/hr
